Assay results as given in US12517131B2, “Methods for labeling eukaryotic cells from a multicellular organism as well as for treating and/or diagnosing a cancer using modified monosaccharide compounds” (DIAMIDEX, priority 2019, dated 2026).
Values joined by “and” are separate entries in the source; they are usually repeats but may differ in a detail not shown here. Identical values can stand only once.

Tests used:
[1] = test system: human urinary bladder carcinoma (T24); test: Labeling of bladder cells with Ara-N3 probe, copper-free click, fluorescence microscopy; type: cell-based; conditions: 24 h, Ara-N3 10 mM
Description: (§1) The human uroepithelial cells (SV-HUC-1) and the human urinary bladder carcinoma (T24) were purchased from ATCC (Manassas, Van USA). These cell lines were grown in RPMI 1640 with Glutamine 1 medium (Lonza Biowhttaker) supplemented by 10% fetal bovine serum (FBS) (VWR international S.A.S). The culture medium was changed every two days. The passaging of cells was performed using Tryp-LE express 1× (Gibco). The cell viability was estimated using trypan blue exclusion tests.
(§2) SV-HUC-1 and T24 cells were seeded in 24-well plates, at density of 5*10^4 cells/well. Then, cells were incubated at 37° C., 5% in CO2 during 24 hours. Thereafter, the culture medium of each well was discarded, and attached cells were washed twice with Phosphate Buffer Salin (PBS) (Lonza Biowhittaker), before to be exposed to Ara-N3 probe (10 mM). Probe was added to culture medium with different FBS concentrations (3% and 10%). Then, cells were incubated at 37° C., 5% in CO2 for 24 hours again. The control cells were cultured using culture medium supplemented with 5% or 10% FBS, without addition of Ara-N3.
(§3) The fluorescence Assimilation of Ara-N3 probes was visualized by copper-free click chemistry using sulfo-DBCO-biotin (1 mM), followed by labeling with a mouse anti-biotin Alexa Fluor 488 antibody conjugate (0.62 mg/ml stock, Jackson ImmunoResearch, dilution 1/10). The click reaction was carry-out as following: At 24 h incubation times, the culture mediums were removed, and attached cells were washed twice with PBS. Cells were detached with Tryp-LE, washed twice with PBS, and centrifuged at 13000 g for 2 min. The cellular pellets were resuspended with 10 μL of sulfo-DBCO-biotin and incubated 30 min in the dark, and at 37 C°. Then, cells were washed twice with PBS, centrifuged, and cellular pellets were resuspended with 10 μL of a mouse anti-biotin antibody solution, before to be incubated at room temperature in dark. Thereafter, cells were washed twice with PBS and small cellular suspension spots (5 μL) were put in Polysine® adhesion slides (VWR international S.A.S), in the dark room, until dry (20 min). The spots were fixed with 4% paraformaldehyde during 20 min, in dark and room temperature. Slides were then washed twice with PBS, before recovering with square cover glasses (VWR international S.A.S) using glycerol Mounting Medium (Dako) and stored at 4° C. in dark room.
(§4) The fluorescence acquisition was recorded using Olympus Microscopy IX83 (Olympus Life Science) equipped with a 60×/1.3 […]/1.4 SRI (silicone refractive index) objective, and Hamamatsu oreca flash 4 LT camera with 109 nm/pixel calibrated pixel size. The excitation light was emitted by X-CITE 120LED using the AT180/30X excited filter and signal was monitored using AT535/40m emission filter. Green light exposition time was 600 ms and white light exposition time was determined by DIC methods at […]. The acquisition area size analyzed by the Celisens dimension V1.16 software was different depending on the cell number containing in the spot.
(§5) The images were processed using count and measure unit of the Cellsens dimension V1.16 software. The background noise was deleted as follows: ROI were first defined on the background of the image and the average pixel intensity was calculated. The value thus obtained was subtracted from all pixels of the image. The fluorescence intensity of each cell was determined from a threshold set at a value of 3030. All pixels that have intensity below 3030 were not counted.

[2] = test system: human uroepithelial cells (SV-HUC-1); test: as above; type: cell-based; conditions: 24 h, Ara-N3 10 mM
Description: as §1, §2, §3, §4, §5

[3] = test system: NAMALWA (vs B12-F8); test: Labeling of cancer and non-cancer cells, fluorescence signal ratio; type: cell-based, human; conditions: NAMALWA (20 h) vs B12-F8 (24 h); Ara-N3 10 mM; FBS 10%; one doubling time
Description: as §3, §4, §5
(§6) The same experiments as in example 2 with other cancer and corresponding non cancer cells were performed. The culture media were adapted to the tested cells and supplemented by 10% fetal bovine serum (FBS). Ara-N3 probe (10 mM) was added to culture media with FBS concentration (10%). The incubation times corresponded to one doubling time or twice doubling time of the tested cells (see table below).
(§7) The fluorescence signal cancer/non cancer ratios were calculated based on fluorescence intensities obtained with Ara-N3 tested on cancer and corresponding non cancer cells.

[4] = test system: HT29 (vs Colon epithelial cell); test: as above; type: cell-based, human; conditions: HT29 (doubling time 40 h) vs Colon epithelial cell (40 h); Ara-N3 10 mM; FBS 10%; test at 2 doubling time
Description: as §3, §4, §5, §6, §7

[5] = test system: A549 (vs Bronchial epithelial cell); test: as above; type: cell-based, human; conditions: A549 (doubling time 40 h) vs Bronchial epithelial cell (40 h); Ara-N3 10 mM; FBS 10%; test at 2 doubling time
Description: as §3, §4, §5, §6, §7

[6] = test system: THP1 (vs Monocytes/Macrophages); test: as above; type: cell-based, human; conditions: THP1 (26 h) vs Monocytes/Macrophages (26 h); Ara-N3 10 mM; FBS 10%; one doubling time
Description: as §3, §4, §5, §6, §7

[7] = test system: A375 (vs PIG); test: as above; type: cell-based, human; conditions: A375 (26 h) vs PIG (26 h); Ara-N3 10 mM; FBS 10%; one doubling time
Description: as §3, §4, §5, §6, §7

[N-]=[N+]=NC[C@H]1OC(O)[C@@H](O)[C@@H]1O (stereo partly drawn) [Ara-N3, 5-azido-5-deoxy-D-arabinofuranose]
labelled cells %, T24 % ([1]; Intensity/μm^2 0-50000, FBS 3%, n = 226): 2.21%
labelled cells %, T24 % ([1]; Intensity/μm^2 0-50,000, FBS 10%, n = 282): 1.42%
labelled cells %, T24 % ([1]; Intensity/μm^2 50,000-100,000, FBS 3%, n = 226): 2.65%
labelled cells %, T24 % ([1]; Intensity/μm^2 50,000-100,000, FBS 10%, n = 282): 2.13%
labelled cells %, T24 % ([1]; Intensity/μm^2 100,000-150,000, FBS 3%, n = 226): 2.65%
labelled cells %, T24 % ([1]; Intensity/μm^2 100,000-150,000, FBS 10%, n = 282): 2.48%
labelled cells %, T24 % ([1]; Intensity/μm^2 150,000-200,000, FBS 3%, n = 226): 5.75%
labelled cells %, T24 % ([1]; Intensity/μm^2 150,000-200,000, FBS 10%, n = 282): 1.42%
labelled cells %, T24 % ([1]; Intensity/μm^2 200,000-250,000, FBS 3%, n = 226): 3.98%
labelled cells %, T24 % ([1]; Intensity/μm^2 200,000-250,000, FBS 10%, n = 282): 2.13%
labelled cells %, T24 % ([1]; Intensity/μm^2 250,000-300,000, FBS 3%, n = 226): 3.54%
labelled cells %, T24 % ([1]; Intensity/μm^2 250,000-300,000, FBS 10%, n = 282): 1.42%
labelled cells %, T24 % ([1]; Intensity/μm^2 300,000-350,000, FBS 3%, n = 226): 2.21%
labelled cells %, T24 % ([1]; Intensity/μm^2 300,000-350,000, FBS 10%, n = 282): 1.77%
labelled cells %, T24 % ([1]; Intensity/μm^2 350,000-400,000, FBS 3%, n = 226): 3.98%
labelled cells %, T24 % ([1]; Intensity/μm^2 350,000-400,000, FBS 10%, n = 282): 2.48%
labelled cells %, T24 % ([1]; Intensity/μm^2 400,000-450,000, FBS 3%, n = 226): 2.65%
labelled cells %, T24 % ([1]; Intensity/μm^2 400,000-450,000, FBS 10%, n = 282): 3.19%
labelled cells %, T24 % ([1]; Intensity/μm^2 450,000-500,000, FBS 3%, n = 226): 3.54%
labelled cells %, T24 % ([1]; Intensity/μm^2 450,000-500,000, FBS 10%, n = 282): 2.13%
labelled cells %, T24 % ([1]; Intensity/μm^2 >500,000, FBS 3%, n = 226): 66.81%
labelled cells %, T24 % ([1]; Intensity/μm^2 >500,000, FBS 10%, n = 282): 79.42% and 79.43%
labelled cells %, SV-HUC1 % ([2]; Intensity/μm^2 0-50000, FBS 3%, n = 239): 62.34%
labelled cells %, SV-HUC1 % ([2]; Intensity/μm^2 0-50,000, FBS 10%, n = 301): 73.45%
labelled cells %, SV-HUC1 % ([2]; Intensity/μm^2 50,000-100,000, FBS 3%, n = 239): 2.51%
labelled cells %, SV-HUC1 % ([2]; Intensity/μm^2 50,000-100,000, FBS 10%, n = 301): 4.32%
labelled cells %, SV-HUC1 % ([2]; Intensity/μm^2 100,000-150,000, FBS 3%, n = 239): 2.09%
labelled cells %, SV-HUC1 % ([2]; Intensity/μm^2 100,000-150,000, FBS 10%, n = 301): 1.66%
labelled cells %, SV-HUC1 % ([2]; Intensity/μm^2 150,000-200,000, FBS 3%, n = 239): 1.26%
labelled cells %, SV-HUC1 % ([2]; Intensity/μm^2 150,000-200,000, FBS 10%, n = 301): 1.33%
labelled cells %, SV-HUC1 % ([2]; Intensity/μm^2 200,000-250,000, FBS 3%, n = 239): 1.67%
labelled cells %, SV-HUC1 % ([2]; Intensity/μm^2 200,000-250,000, FBS 10%, n = 301): 0.66%
labelled cells %, SV-HUC1 % ([2]; Intensity/μm^2 250,000-300,000, FBS 3%, n = 239): 3.77%
labelled cells %, SV-HUC1 % ([2]; Intensity/μm^2 250,000-300,000, FBS 10%, n = 301): 0.66%
labelled cells %, SV-HUC1 % ([2]; Intensity/μm^2 300,000-350,000, FBS 3%, n = 239): 0.42%
labelled cells %, SV-HUC1 % ([2]; Intensity/μm^2 300,000-350,000, FBS 10%, n = 301): 0.33%
labelled cells %, SV-HUC1 % ([2]; Intensity/μm^2 350,000-400,000, FBS 3%, n = 239): 0.42%
labelled cells %, SV-HUC1 % ([2]; Intensity/μm^2 350,000-400,000, FBS 10%, n = 301): 0.66%
labelled cells %, SV-HUC1 % ([2]; Intensity/μm^2 400,000-450,000, FBS 3%, n = 239): 0.84%
labelled cells %, SV-HUC1 % ([2]; Intensity/μm^2 400,000-450,000, FBS 10%, n = 301): 0.66%
labelled cells %, SV-HUC1 % ([2]; Intensity/μm^2 450,000-500,000, FBS 3%, n = 239): 2.93%
labelled cells %, SV-HUC1 % ([2]; Intensity/μm^2 450,000-500,000, FBS 10%, n = 301): 1.33%
labelled cells %, SV-HUC1 % ([2]; Intensity/μm^2 >500,000, FBS 3%, n = 239): 21.76%
labelled cells %, SV-HUC1 % ([2]; Intensity/μm^2 >500,000, FBS 10%, n = 301): 14.62%
Cancer/Non Cancer Ratio (fluorescence signal) [3]: 2.3
Cancer/Non Cancer Ratio (fluorescence signal) [4]: 13.2
Cancer/Non Cancer Ratio (fluorescence signal) [5]: 7.7
Cancer/Non Cancer Ratio (fluorescence signal) [6]: 19.5
Cancer/Non Cancer Ratio (fluorescence signal) [7]: 3.5
